Data taken from ChEMBL document CHEMBL4229518, “New β-lactam - Tetramic acid hybrids show promising antibacterial activities” (Bioorg Med Chem Lett, 2018).
Converted amounts (≈) assume the structure as drawn.

Columns and labels:
Assay type in all cases: functional
Bacillus subtilis = experiment: Antimicrobial activity against Bacillus subtilis ATCC 23857 after 18 to 20 hrs by microbroth dilution method
Bacillus anthracis = experiment: Antimicrobial activity against Bacillus anthracis Sterne 34F2 after 18 to 20 hrs by microbroth dilution method
Bacillus cereus = experiment: Antimicrobial activity against Bacillus cereus ATCC 14579 after 18 to 20 hrs by microbroth dilution method
Enterococcus faecalis = experiment: Antimicrobial activity against Enterococcus faecalis ATCC 33186 after 18 to 20 hrs by microbroth dilution method
Staphylococcus aureus [1] = experiment: Antimicrobial activity against methicillin-susceptible Staphylococcus aureus ATCC 29213 after 18 to 20 hrs by microbroth dilution method
Staphylococcus aureus [2] = experiment: Antimicrobial activity against methicillin-susceptible Staphylococcus aureus NRS70 after 18 to 20 hrs by microbroth dilution method
Streptococcus pneumoniae = experiment: Antimicrobial activity against Streptococcus pneumoniae R6 after 18 to 20 hrs by microbroth dilution method
Streptococcus pyogenes = experiment: Antimicrobial activity against Streptococcus pyogenes ATCC 700294 after 18 to 20 hrs by microbroth dilution method; conditions: M1 GAS
Acinetobacter baumannii = experiment: Antimicrobial activity against Acinetobacter baumannii ATCC 19606 after 18 to 20 hrs by microbroth dilution method; conditions: ATCC 19606 = CIP 70.34 = JCM 6841
Enterobacter cloacae = experiment: Antimicrobial activity against Enterobacter cloacae ATCC 13047 after 18 to 20 hrs by microbroth dilution method; conditions: subsp. cloacae ATCC 13047
Escherichia coli [3] = experiment: Antimicrobial activity against Escherichia coli BW25113 after 18 to 20 hrs by microbroth dilution method
Escherichia coli [4] = experiment: Antimicrobial activity against tolC deficient Escherichia coli JW5503-1 after 18 to 20 hrs by microbroth dilution method
Klebsiella pneumoniae [5] = experiment: Antimicrobial activity against Klebsiella pneumoniae ATCC 33495 after 18 to 20 hrs by microbroth dilution method
Pseudomonas aeruginosa = experiment: Antimicrobial activity against Pseudomonas aeruginosa PAO1 after 18 to 20 hrs by microbroth dilution method
Proteus mirabilis = experiment: Antimicrobial activity against Proteus mirabilis ATCC 25933 after 18 to 20 hrs by microbroth dilution method
[6] = system: Stenotrophomonas maltophilia; experiment: Antimicrobial activity against Stenotrophomonas maltophilia ATCC 700475 after 18 to 20 hrs by microbroth dilution method
Klebsiella pneumoniae [7] = experiment: Antimicrobial activity against Klebsiella pneumoniae isolate SJ 1 after 18 to 20 hrs by microbroth dilution method
Klebsiella pneumoniae [8] = experiment: Antimicrobial activity against Klebsiella pneumoniae isolate SJ 2 after 18 to 20 hrs by microbroth dilution method
Klebsiella pneumoniae [9] = experiment: Antimicrobial activity against Klebsiella pneumoniae isolate SJ 3 after 18 to 20 hrs by microbroth dilution method
Klebsiella pneumoniae [10] = experiment: Antimicrobial activity against Klebsiella pneumoniae isolate SJ 4 after 18 to 20 hrs by microbroth dilution method
Klebsiella pneumoniae [11] = experiment: Antimicrobial activity against Klebsiella pneumoniae isolate SJ 5 after 18 to 20 hrs by microbroth dilution method
Escherichia coli [12] = experiment: Antimicrobial activity against Escherichia coli isolate SJ 1 after 18 to 20 hrs by microbroth dilution method
Escherichia coli [13] = experiment: Antimicrobial activity against Escherichia coli isolate SJ 2 after 18 to 20 hrs by microbroth dilution method
Escherichia coli [14] = experiment: Antimicrobial activity against Escherichia coli isolate SJ 3 after 18 to 20 hrs by microbroth dilution method
Escherichia coli [15] = experiment: Antimicrobial activity against Escherichia coli isolate SJ 4 after 18 to 20 hrs by microbroth dilution method
Escherichia coli [16] = experiment: Antimicrobial activity against Escherichia coli isolate SJ 5 after 18 to 20 hrs by microbroth dilution method
Escherichia coli [17] = experiment: Antimicrobial activity against Escherichia coli isolate SJ 6 after 18 to 20 hrs by microbroth dilution method
Escherichia coli [18] = experiment: Antimicrobial activity against Escherichia coli ATCC 35218 expressing TEM-1 beta lactamases after 18 to 20 hrs by microbroth dilution method
Escherichia coli [19] = experiment: Antimicrobial activity against Escherichia coli ATCC 25922 after 18 to 20 hrs by microbroth dilution method

SMILES	MIC (Bacillus subtilis) [µg/mL]	MIC (Bacillus anthracis) [µg/mL]	MIC (Bacillus cereus) [µg/mL]	MIC (Enterococcus faecalis) [µg/mL]	MIC (Staphylococcus aureus [1]) [µg/mL]	MIC (Staphylococcus aureus [2]) [µg/mL]	MIC (Streptococcus pneumoniae) [µg/mL]	MIC (Streptococcus pyogenes) [µg/mL]	MIC (Acinetobacter baumannii) [µg/mL]	MIC (Enterobacter cloacae) [µg/mL]	MIC (Escherichia coli [3]) [µg/mL]	MIC (Escherichia coli [4]) [µg/mL]	MIC (Klebsiella pneumoniae [5]) [µg/mL]	MIC (Pseudomonas aeruginosa) [µg/mL]	MIC (Proteus mirabilis) [µg/mL]	MIC [6] [µg/mL]	further results
CC(C)CC1NC(=O)C(C(=O)NCCC(=O)N[C@@H](C(=O)N[C@@H]2C(=O)N3[C@@H]2SC(C)(C)[C@@H]3C(=O)O)c2ccccc2)=C1O (stereo partly drawn)	3.13 (≈ 5.2 µM)	3.13 (≈ 5.2 µM)	25 (≈ 41.6 µM)	50 (≈ 83.1 µM)	0.78 (≈ 1.3 µM)	50 (≈ 83.1 µM)	< 0.2	0.78 (≈ 1.3 µM)	200 (≈ 332 µM)	> 200	50 (≈ 83.1 µM)	25 (≈ 41.6 µM)	200 (≈ 332 µM)	25 (≈ 41.6 µM)	6.25 (≈ 10.4 µM)	50 (≈ 83.1 µM)	–
CO[C@@]1(NC(=O)CSCC#N)C(=O)N2C(C(=O)O)=C(CSc3nnnn3C)CS[C@@H]21 [CEFMETAZOLE]	–	–	–	–	–	–	–	–	25 (≈ 53 µM)	–	0.39 (≈ 0.827 µM)	1.56 (≈ 3.31 µM)	3.13 (≈ 6.64 µM)	> 200	0.39 (≈ 0.827 µM)	–	MIC (Klebsiella pneumoniae [7]): 0.39 µg/mL (≈ 0.827 µM); MIC (Klebsiella pneumoniae [8]): 0.39 µg/mL (≈ 0.827 µM); MIC (Klebsiella pneumoniae [9]): 0.39 µg/mL (≈ 0.827 µM); MIC (Klebsiella pneumoniae [10]): 0.78 µg/mL (≈ 1.65 µM); MIC (Klebsiella pneumoniae [11]): 1.56 µg/mL (≈ 3.31 µM); MIC (Escherichia coli [12]): 0.39 µg/mL (≈ 0.827 µM); MIC (Escherichia coli [13]): 0.78 µg/mL (≈ 1.65 µM); MIC (Escherichia coli [14]): 0.78 µg/mL (≈ 1.65 µM); MIC (Escherichia coli [15]): 0.78 µg/mL (≈ 1.65 µM); MIC (Escherichia coli [16]): 6.25 µg/mL (≈ 13.3 µM); MIC (Escherichia coli [17]): 12.5 µg/mL (≈ 26.5 µM); MIC (Escherichia coli [18]): 0.39 µg/mL (≈ 0.827 µM); MIC (Escherichia coli [19]): 0.78 µg/mL (≈ 1.65 µM)
CC(C)CC1NC(=O)C(C(=O)NCCCCCC(=O)N[C@@H](C(=O)N[C@@H]2C(=O)N3[C@@H]2SC(C)(C)[C@@H]3C(=O)O)c2ccccc2)=C1O (stereo partly drawn)	3.13 (≈ 4.86 µM)	3.13 (≈ 4.86 µM)	50 (≈ 77.7 µM)	25 (≈ 38.8 µM)	0.78 (≈ 1.21 µM)	50 (≈ 77.7 µM)	< 0.2	< 0.2	100 (≈ 155 µM)	> 200	50 (≈ 77.7 µM)	12.5 (≈ 19.4 µM)	> 200	50 (≈ 77.7 µM)	6.25 (≈ 9.71 µM)	25 (≈ 38.8 µM)	–
CC(C)CC1NC(=O)C(C(=O)NCCC(=O)N[C@@H](C(=O)N[C@@H]2C(=O)N3C(C(=O)O)=C(Cl)CS[C@H]23)c2ccccc2)=C1O (stereo partly drawn)	0.78 (≈ 1.26 µM)	12.5 (≈ 20.2 µM)	> 200	100 (≈ 161 µM)	0.78 (≈ 1.26 µM)	25 (≈ 40.3 µM)	0.39 (≈ 0.629 µM)	1.56 (≈ 2.52 µM)	50 (≈ 80.6 µM)	> 200	12.5 (≈ 20.2 µM)	12.5 (≈ 20.2 µM)	50 (≈ 80.6 µM)	> 200	1.56 (≈ 2.52 µM)	> 200	–
CC1=C(C(=O)O)N2C(=O)[C@@H](NC(=O)CCNC(=O)C3=C(O)C(CC(C)C)NC3=O)[C@H]2SC1 (stereo partly drawn)	100 (≈ 214 µM)	200 (≈ 429 µM)	> 200	> 200	50 (≈ 107 µM)	100 (≈ 214 µM)	200 (≈ 429 µM)	> 200	> 200	> 200	> 200	> 200	> 200	> 200	> 200	> 200	–
CC1=C(C(=O)O)N2C(=O)[C@@H](NC(=O)[C@H](NC(=O)C3=C(O)C(CC(C)C)NC3=O)c3ccccc3)[C@H]2SC1 (stereo partly drawn)	25 (≈ 47.3 µM)	200 (≈ 378 µM)	> 200	200 (≈ 378 µM)	12.5 (≈ 23.6 µM)	100 (≈ 189 µM)	100 (≈ 189 µM)	3.13 (≈ 5.92 µM)	100 (≈ 189 µM)	> 200	> 200	100 (≈ 189 µM)	> 200	> 200	100 (≈ 189 µM)	100 (≈ 189 µM)	–
CC1=C(C(=O)O)N2C(=O)[C@@H](NC(=O)[C@H](N)c3ccccc3)[C@H]2SC1 [CEPHALEXIN ANHYDROUS]	0.78 (≈ 2.25 µM)	3.13 (≈ 9.01 µM)	> 200	200 (≈ 576 µM)	3.13 (≈ 9.01 µM)	> 200	6.25 (≈ 18 µM)	3.13 (≈ 9.01 µM)	> 200	> 200	50 (≈ 144 µM)	100 (≈ 288 µM)	50 (≈ 144 µM)	> 200	50 (≈ 144 µM)	> 200	–
CC(C)CC1NC(=O)C(C(=O)NCCCC(=O)N[C@@H](C(=O)N[C@@H]2C(=O)N3[C@@H]2SC(C)(C)[C@@H]3C(=O)O)c2ccccc2)=C1O (stereo partly drawn)	3.13 (≈ 5.08 µM)	3.13 (≈ 5.08 µM)	25 (≈ 40.6 µM)	25 (≈ 40.6 µM)	0.78 (≈ 1.27 µM)	50 (≈ 81.2 µM)	< 0.2	0.39 (≈ 0.633 µM)	100 (≈ 162 µM)	> 200	25 (≈ 40.6 µM)	12.5 (≈ 20.3 µM)	> 200	50 (≈ 81.2 µM)	1.56 (≈ 2.53 µM)	25 (≈ 40.6 µM)	–
CC1=C(C(=O)O)N2C(=O)[C@@H](NC(=O)[C@H](NC(=O)CCNC(=O)C3=C(O)C(CC(C)C)NC3=O)c3ccccc3)[C@H]2SC1 (stereo partly drawn)	6.25 (≈ 10.4 µM)	100 (≈ 167 µM)	> 200	> 200	3.13 (≈ 5.22 µM)	50 (≈ 83.4 µM)	12.5 (≈ 20.8 µM)	12.5 (≈ 20.8 µM)	> 200	> 200	200 (≈ 334 µM)	200 (≈ 334 µM)	200 (≈ 334 µM)	> 200	50 (≈ 83.4 µM)	> 200	–
CC(C)CC1NC(=O)C(C(=O)N[C@@H](C(=O)N[C@@H]2C(=O)N3[C@@H]2SC(C)(C)[C@@H]3C(=O)O)c2ccccc2)=C1O (stereo partly drawn)	3.13 (≈ 5.9 µM)	3.13 (≈ 5.9 µM)	12.5 (≈ 23.6 µM)	25 (≈ 47.1 µM)	0.78 (≈ 1.47 µM)	25 (≈ 47.1 µM)	0.39 (≈ 0.735 µM)	0.39 (≈ 0.735 µM)	50 (≈ 94.2 µM)	> 200	50 (≈ 94.2 µM)	6.25 (≈ 11.8 µM)	200 (≈ 377 µM)	12.5 (≈ 23.6 µM)	12.5 (≈ 23.6 µM)	6.25 (≈ 11.8 µM)	–
